Source: EP1928474B1, “USE OF GLUCOSYLATED HYDROXYSTILBENES FOR THE PREVENTION AND TREATMENT OF EYE PATHOLOGIES” (Tubilux Pharma S.P.A., priority 2005, dated 2007)

Key:
[1] = system: human liver myofibroblasts; conditions: literature; cited from earlier work
hTERT fibroblasts [2] = assay: Differentiation of TGF-β-stimulated hTERT fibroblasts into myofibroblasts, α-SMA-positive cells by flow cytometry; format: cell-based, human; conditions: 5 µg/ml; for percentage of cells capable of expressing α-SMA: sub-optimal dose (0.1 ng/ml) of TGF-β, Figure 2
Method: The study aimed at determining the effects of piceide treatment on the differentiation of corneal fibroblasts immortalised with human inverse telomerase transcriptase (hTERT fibroblasts) stimulated with sub-optimal, optimal or above-optimal doses of TGF-β. Fibroblast differentiation into myofibroblasts was determined by examining whether there was any α-smooth muscle actin (α-SMA).
Some hTERT fibroblasts maintained in a DMEM culture were re-suspended at a concentration of 1x10^6 and placed on 24mm-well plates. The cells were incubated at a temperature of 37°C with piceide or resveratrol at doses of 5 µg/ml. After 24 h the cells were stimulated with optimal (1ng/ml), sub-optimal (0.1 ng/ml) and above-optimum (10 ng ml) doses of TGF-β. After 3, 5 and 10 days of incubation, the fibroblasts were washed and re-suspended in PBS at a concentration of 1x10^6, in order to determine the α-SMA-positive cells by means of flow cytometry.
The cells treated in the aforesaid way were permeabilised by treatment with 70% ethanol and then labelled with 5µg/ml of a human anti-α-SMA antibody labelled with FITC. After colouring, the cells were fixed in paraformaldehyde and analysed by a means of a FACScan cytofluorimeter.

hTERT fibroblasts [3] = assay: Toxicity for hTERT fibroblasts at the doses assayed; conditions: doses of the differentiation study, 5 µg/ml
[4] = system: fibroblasts of normal corneal origin; assay: Differentiation of TGF-β-stimulated fibroblasts of normal corneal origin into myofibroblasts, α-SMA expression; format: cell-based
Description: As reported in detail in the experimental section below, piceide has - unlike resveratrol - unexpectedly proven to be capable of modulating the capacity of TGF-β to cause fibroblast differentiation into myofibroblasts.

[5] = system: inducible nitric-synthesase oxide (iNOS); assay: iNOS production by hTERT fibroblasts stimulated with cytokines (IL-1 + IFN-γ), iNOS-positive cells by flow cytometry; format: cell-based, human; conditions: for number of iNOS-positive fibroblasts: pre-incubation at 1.25 - 2.5 - 5 µg/ml, then IL-1 3 ng/ml + IFN-γ 250 U/ml, 48 h, Figure 1
Method: The study aimed at determining the effects of treatment with piceide and resveratrol on the inducible nitric-synthesase oxide (iNOS) by corneal fibroblasts immortalised with human Telomerase Reverse Transcriptase (hTERT fibroblasts), stimulated with interferon-γ (IFN-γ) and interleukine-1 (IL-1).
Some hTERT fibroblasts were maintained in a DMEM culture medium. They were subsequently re-suspended at a concentration of 1x10^6 and placed on 24 mm-well plates. The cells were incubated at a temperature of 37°C with piceide or resveratrol at doses of 1.25 - 2.5 - 5 µg/ml. After 15 minutes the following were added to the wells containing the cells: IL-1 at a concentration of 3 ng/ml, and IFN-γ at a concentration of 250 U/ml. After a further 48 h of incubation, the fibroblasts were washed and re-suspended in PBS at a concentration of 1x10^6, in order to determine the iNOS-positive cells by means of flow cytometry.
The cells treated in the aforesaid way were permeabilised by treatment with 70% ethanol and then labelled with 5 µg/ml of a human anti-iNOS antibody labelled with FITC. After; colouring, the cells were fixed in paraformaldehyde and analysed by means of a FACScan cytofluorimeter.

iNOS = iNOS production by fibroblasts of normal corneal origin stimulated with IL-1; format: cell-based; conditions: equal doses
Description: As will be illustrated in greater detail in the experimental section below, piceide - at non-toxic levels - blocks iNOS production and its activity is correlated to the dose. […] This different activity is probably due to the different chemical structure of the two molecules and to the consequent different biological characteristics, among which the greater bioavailability of piceide at the cell level is important. Another anti-inflammatory effect of piceide, linked to what has been said above, lies in its capacity to inhibit cyclooxygenase synthesis and thus the synthesis and release of pro-inflammatory prostaglandins.

SMILES | effect on liver myofibroblasts [1] | percentage of α-SMA+ cells (hTERT fibroblasts [2]; above-optimal dose (10 ng/ml) of TGF-β, 5th day, Figure 4) | percentage of α-SMA+ cells (hTERT fibroblasts [2]; above-optimal dose (10 ng/ml) of TGF-β, 10th day, Figure 4) | percentage of α-SMA-positive cells (hTERT fibroblasts [2]; optimal dose (1 ng/ml) of TGF-β, all three time intervals (3, 5, 10 days), Figure 3) | percentage of cells capable of expressing α-SMA (hTERT fibroblasts [2]; 5th day) | percentage of cells capable of expressing α-SMA (hTERT fibroblasts [2]; 10th day) | percentage of cells capable of expressing α-SMA (hTERT fibroblasts [2]; 3 days, compared to non-treated) | toxicity (hTERT fibroblasts [3]) | TGF-β activity assessed by α-SMA expression ([4]; fibroblasts of normal corneal origin, sub-optimal concentration of TGF-β) | α-SMA expression ([4]; normal fibroblasts, above-optimal concentration of TGF-β) | decrease in iNOS-positive fibroblasts compared to resveratrol ([5]; equal doses 1.25 - 2.5 - 5 µg/ml, differences statistically significant at each point) | number of iNOS-positive fibroblasts [5] | inhibition of iNOS production compared to resveratrol (iNOS) | percentage of α-SMA+ cells (hTERT fibroblasts [2]; above-optimal dose of TGF-β, time not stated) | percentage of α-SMA+ cells (hTERT fibroblasts [2]; optimal dose of TGF-β, time not stated) | percentage of α-SMA+ cells (hTERT fibroblasts [2]; sub-optimal dose of TGF-β, time not stated) | α-SMA expression [1]
Oc1cc(O)cc(/C=C/c2ccc(O)c(O)c2)c1 [trans-piceatannol, trans-3,4',3',5-tetrahydroxystilbene] | neither trans-piceide nor another hydroxystilbene - trans-piceatannol (trans-3,4',3',5-tetrahydroxystilbene) - have shown any effect | – | – | – | – | – | – | – | – | – | – | – | – | – | – | – | –
OC[C@H]1O[C@@H](Oc2cc(O)cc(/C=C/c3ccc(O)cc3)c2)[C@H](O)[C@@H](O)[C@@H]1O [piceide, resveratrol-3-O-β-mono-D-glucoside] | did not show any significant effects | percentage decrease in fibroblasts which was already significant | brought the number of fibroblasts back to physiological conditions | did not lead to any significant percentage variations | decreased, although still remaining statistically significant | no longer any significant percentages of cells able to express α-SMA | statistically significant increase | does not appear toxic | increase growth factor activity | decrease in α-SMA expression | greater | dose-dependent decrease | more effective | – | – | – | –
Oc1ccc(/C=C/c2cc(O)cc(O)c2)cc1 [resveratrol, reference compound] | able to deactivate human liver myofibroblasts | – | – | – | – | – | – | – | – | – | – | decrease | – | did not lead to any statistically significant variation | did not lead to any statistically significant variation | did not lead to any statistically significant variation | reduction
